System: multispecies biofilms
Experiment: Follow-up observation of pH of washes of a laboratory model of multispecies biofilms in 10% sucrose
Assay type: cell-based
Conditions: for Value of pH decrease within 30 min. of measurement (%): compared to the initial value
Experimental: Example No. 3. Follow-up observation of pH of washes of a laboratory model of multispecies biofilms.
To perform this test, it was necessary to obtain multispecies biofilms of bacteria. A 72-well, round-bottom, polystyrene plate for titration was used as an adhesive surface for growing multispecies biofilms. The inner surface was processed with a round abrasive drill bit, with visual inspection of the procedure. Then the plate was washed and immersed into isopropyl alcohol for 10 min. followed by 3-fold washing in distilled water.
Saliva was collected in the fasting state by spitting into a sterile centrifuge tube. Saliva was used to prepare inoculum with the following composition: 96.5 ml of saliva, 1 ml of 10% sucrose, 3.5 ml of S.mutans suspension 0.8 units of McF.
To obtain biofilms, the prepared inoculum was poured 1 ml into all wells of the prepared plate, after which the wells were covered with a similar plate and sealed with parafilm film. The plate was placed on a shaker pad with variable surface slope placed in a CO2 incubator and incubated overnight (16 hours). The contents of the wells were then extracted with an aspirator by dipping the plastic tip into the center of the well until completely drained. 1 ml of soy-casein broth was added to all wells of the plate with an automatic pipette. The plate was placed into the incubator. The described cycle was repeated for four days.
Biofilm formation was monitored visually by gram staining. After four days, the contents of the wells were extracted with an aspirator. All 6 wells of the first row were filled with 1 ml of deionized water and left for 5 min. Water was extracted with an aspirator; 1 ml of the test drug was added into the wells, in 1 min. the drug was removed, the wells were filled for 1 min. with deionized water, then it was removed. 250 µl of 10% sucrose solution was added to the wells. The formed biofilms were scraped off with a disposable loop (10µl); the suspension of two neighboring wells was combined and transferred to three Eppendorfs. Sample combination allowed increasing the volume of the analyzed suspension sample up to 0.5 ml, which in turn allowed carrying out pH measurements in free volume with the necessary reserve at high density of biofilm culture of microorganisms and optimal time for the sample measurement procedure (20 sec.). After combination of the samples, pH was immediately measured. The measurement time points were 0, 1, 2, 3, 4, 5, 6, 6, 7, 8, 9, 10, 15,20,30 min. The results of pH changes in multispecies dental biofilms in the presence of sucrose under the influence of active ingredients are shown in Figure 3 and Tables 3-4. Table 3. Results of pH measurements of mechanically disrupted multispecies biofilms in 10% sucrose solution, follow-up (10% sucrose solution pH-6.98).

## NC(N)=O [Urea, reference compound]
Urea 0.5%, 0 min
  pH of mechanically disrupted multispecies biofilms: 6.4±0.006
Urea 0.5%, 1 min
  pH of mechanically disrupted multispecies biofilms: 6.4±0.006
Urea 0.5%, 1 min vs previous time point
  pH change (in brackets), multispecies biofilms: 0
Urea 0.5%, 2 min
  pH of mechanically disrupted multispecies biofilms: 6.4±0.006
Urea 0.5%, 2 min vs previous time point
  pH change (in brackets), multispecies biofilms: 0
Urea 0.5%, 3 min
  pH of mechanically disrupted multispecies biofilms: 6.4±0.006
Urea 0.5%, 3 min vs previous time point
  pH change (in brackets), multispecies biofilms: 0
Urea 0.5%, 4 min
  pH of mechanically disrupted multispecies biofilms: 6.41±0.006
Urea 0.5%, 4 min vs previous time point
  pH change (in brackets), multispecies biofilms: +0.01
Urea 0.5%, 5 min
  pH of mechanically disrupted multispecies biofilms: 6.42±0.006
Urea 0.5%, 5 min vs previous time point
  pH change (in brackets), multispecies biofilms: +0.01
Urea 0.5%, 6 min
  pH of mechanically disrupted multispecies biofilms: 6.44±0.006
Urea 0.5%, 6 min vs previous time point
  pH change (in brackets), multispecies biofilms: +0.02
Urea 0.5%, 7 min
  pH of mechanically disrupted multispecies biofilms: 6.45±0.006
Urea 0.5%, 7 min vs previous time point
  pH change (in brackets), multispecies biofilms: +0.01
Urea 0.5%, 8 min
  pH of mechanically disrupted multispecies biofilms: 6.43±0.02
Urea 0.5%, 8 min vs previous time point
  pH change (in brackets), multispecies biofilms: -0.02
Urea 0.5%, 9 min
  pH of mechanically disrupted multispecies biofilms: 6.43±0.0
Urea 0.5%, 9 min vs previous time point
  pH change (in brackets), multispecies biofilms: 0
Urea 0.5%, 10 min
  pH of mechanically disrupted multispecies biofilms: 6.42±0.0
Urea 0.5%, 10 min vs previous time point
  pH change (in brackets), multispecies biofilms: -0.01
Urea 0.5%, 15 min
  pH of mechanically disrupted multispecies biofilms: 6.25±0.01
Urea 0.5%, 15 min vs previous time point
  pH change (in brackets), multispecies biofilms: -0.17
Urea 0.5%, 20 min
  pH of mechanically disrupted multispecies biofilms: 6.18±0.02
Urea 0.5%, 20 min vs previous time point
  pH change (in brackets), multispecies biofilms: -0.07
Urea 0.5%, 30 min
  pH of mechanically disrupted multispecies biofilms: 5.97±0.02
Urea 0.5%, 30 min vs previous time point
  pH change (in brackets), multispecies biofilms: -0.21
Urea 0.5%
  Value of pH decrease within 30 min. of measurement (%): -6.7%

## Nisin
Nisin 0.004%, 0 min
  pH of mechanically disrupted multispecies biofilms: 6.32±0.006
Nisin 0.004%, 1 min
  pH of mechanically disrupted multispecies biofilms: 6.3±0.006
Nisin 0.004%, 1 min vs previous time point
  pH change (in brackets), multispecies biofilms: -0.02
Nisin 0.004%, 2 min
  pH of mechanically disrupted multispecies biofilms: 6.28±0.0
Nisin 0.004%, 2 min vs previous time point
  pH change (in brackets), multispecies biofilms: -0.02
Nisin 0.004%, 3 min
  pH of mechanically disrupted multispecies biofilms: 6.26±0.006
Nisin 0.004%, 3 min vs previous time point
  pH change (in brackets), multispecies biofilms: -0.02
Nisin 0.004%, 4 min
  pH of mechanically disrupted multispecies biofilms: 6.24±0.01
Nisin 0.004%, 4 min vs previous time point
  pH change (in brackets), multispecies biofilms: -0.02
Nisin 0.004%, 5 min
  pH of mechanically disrupted multispecies biofilms: 6.22±0.006
Nisin 0.004%, 5 min vs previous time point
  pH change (in brackets), multispecies biofilms: -0.02
Nisin 0.004%, 6 min
  pH of mechanically disrupted multispecies biofilms: 6.2±0.0
Nisin 0.004%, 6 min vs previous time point
  pH change (in brackets), multispecies biofilms: -0.02
Nisin 0.004%, 7 min
  pH of mechanically disrupted multispecies biofilms: 6.2±0.006
Nisin 0.004%, 7 min vs previous time point
  pH change (in brackets), multispecies biofilms: 0
Nisin 0.004%, 8 min
  pH of mechanically disrupted multispecies biofilms: 6.19±0.0
Nisin 0.004%, 8 min vs previous time point
  pH change (in brackets), multispecies biofilms: -0.01
Nisin 0.004%, 9 min
  pH of mechanically disrupted multispecies biofilms: 6.19±0.006
Nisin 0.004%, 9 min vs previous time point
  pH change (in brackets), multispecies biofilms: 0
Nisin 0.004%, 10 min
  pH of mechanically disrupted multispecies biofilms: 6.18±0.0
Nisin 0.004%, 10 min vs previous time point
  pH change (in brackets), multispecies biofilms: -0.01
Nisin 0.004%, 15 min
  pH of mechanically disrupted multispecies biofilms: 6.12±0.006
Nisin 0.004%, 15 min vs previous time point
  pH change (in brackets), multispecies biofilms: -0.06
Nisin 0.004%, 20 min
  pH of mechanically disrupted multispecies biofilms: 6.11±0.0
Nisin 0.004%, 20 min vs previous time point
  pH change (in brackets), multispecies biofilms: -0.01
Nisin 0.004%, 30 min
  pH of mechanically disrupted multispecies biofilms: 6.07±0.006
Nisin 0.004%, 30 min vs previous time point
  pH change (in brackets), multispecies biofilms: -0.04
Nisin 0.004%
  Value of pH decrease within 30 min. of measurement (%): -3.95%
Nisin 0.008%
  Value of pH decrease within 30 min. of measurement (%): -8.7%
Nisin 0,008%, 0 min
  pH of mechanically disrupted multispecies biofilms: 6.54±0.006
Nisin 0,008%, 1 min
  pH of mechanically disrupted multispecies biofilms: 6.45±0.006
Nisin 0,008%, 1 min vs previous time point
  pH change (in brackets), multispecies biofilms: -0.09
Nisin 0,008%, 2 min
  pH of mechanically disrupted multispecies biofilms: 6.4±0.006
Nisin 0,008%, 2 min vs previous time point
  pH change (in brackets), multispecies biofilms: -0.05
Nisin 0,008%, 3 min
  pH of mechanically disrupted multispecies biofilms: 6.35±0.006
Nisin 0,008%, 3 min vs previous time point
  pH change (in brackets), multispecies biofilms: -0.05
Nisin 0,008%, 4 min
  pH of mechanically disrupted multispecies biofilms: 6.3±0.006
Nisin 0,008%, 4 min vs previous time point
  pH change (in brackets), multispecies biofilms: -0.05
Nisin 0,008%, 5 min
  pH of mechanically disrupted multispecies biofilms: 6.22±0.01
Nisin 0,008%, 5 min vs previous time point
  pH change (in brackets), multispecies biofilms: -0.08
Nisin 0,008%, 6 min
  pH of mechanically disrupted multispecies biofilms: 6.16±0.006
Nisin 0,008%, 6 min vs previous time point
  pH change (in brackets), multispecies biofilms: -0.06
Nisin 0,008%, 7 min
  pH of mechanically disrupted multispecies biofilms: 6.1±0.01
Nisin 0,008%, 7 min vs previous time point
  pH change (in brackets), multispecies biofilms: -0.06
Nisin 0,008%, 8 min
  pH of mechanically disrupted multispecies biofilms: 6.0±0.02
Nisin 0,008%, 8 min vs previous time point
  pH change (in brackets), multispecies biofilms: -0.1
Nisin 0,008%, 9 min
  pH of mechanically disrupted multispecies biofilms: 5.99±0.006
Nisin 0,008%, 9 min vs previous time point
  pH change (in brackets), multispecies biofilms: -0.01
Nisin 0,008%, 10 min
  pH of mechanically disrupted multispecies biofilms: 5.98±0.0
Nisin 0,008%, 10 min vs previous time point
  pH change (in brackets), multispecies biofilms: -0.01
Nisin 0,008%, 15 min
  pH of mechanically disrupted multispecies biofilms: 5.97±0.006
Nisin 0,008%, 15 min vs previous time point
  pH change (in brackets), multispecies biofilms: -0.01
Nisin 0,008%, 20 min
  pH of mechanically disrupted multispecies biofilms: 5.96±0.006
Nisin 0,008%, 20 min vs previous time point
  pH change (in brackets), multispecies biofilms: -0.01
Nisin 0,008%, 30 min
  pH of mechanically disrupted multispecies biofilms: 5.97±0.006
Nisin 0,008%, 30 min vs previous time point
  pH change (in brackets), multispecies biofilms: +0.01
Nisin 0.004 and 0.008%
  effect on the value of acidity in the multispecies biofilm affected by sucrose: stabilizing effect
